Reference: patent US9101566B2, “Fermentation product of cereal plant-derived material and immunomodulator” (KIRIN HOLDINGS KABUSHIKI KAISHA, priority 2009, dated 2015)

Experiments:
Format in all cases: cell-based
[1] = system: dendritic cells induced from C57BL/6 mouse bone marrow cells with Flt-3L (mDCs, CD11c+CD11b+); assay: Regulatory DC-inducing activity of 14-dehydroergosterol (Example 9)
Description: Regulatory DC induction activity was evaluated for 14-dehydroergosterol (14-DHE) isolated and purified from wheat bran fermented with koji as described above and subjected to structural determination. As controls, ergosterol (Wako Pure Chemical Industries, Japan) and 9(11)-dehydroergosterol (9(11)-DHE) (Sigma-Aldrich Corp.), which are ergosterol-related substances, were used. Also, as conjugated linoleic acid (CLA) that was reported in connection with the inhibition of DC activation in the past, CLA (9Z, 11E) and CLA (10E, 12Z) (both, Cayman Chemical), and linoleic acid (Wako Pure Chemical Industries, Japan) were also subjected to activity determination (J. Immunol., 175(8): 4990-8, Oct. 15, 2005). As negative controls, a sample (none) to which no compound had been administered and a sample (ctrl) to which only LPS had been administered were also subjected to activity determination.
In a manner similar to Example 2, bone marrow cells were prepared from C57BL/6 mouse thigh bone, and then dendritic cells were induced using Flt-3L. Each test substance was added simultaneously with the initiation of culture at a concentration of 1 μM, 5 μM, or 10 μM. Seven days later, LPS (from Salmonella typhosa) (Sigma-Aldrich Corp.) was added at 5 ng/mL and then 24 hours later the cells were recovered. Subsequently, the cells were stained for the following cell markers and then subjected to flow cytometry analysis. All antibodies used were produced by Becton, Dickinson and Company. CD11c^+CD11b^+ was set as a gate for mDCs and then the expression levels of CD40, CD80, CD86, I-A/I-E, and ICOS-L were measured. Also, IL-12p40 and IL-10 in culture supernatants were measured by ELISA.

[2] = system: human DCs from peripheral blood CD14-positive cells; assay: Human regulatory DC-inducing activity of 14-DHE (Example 16); details: 14-DHE 1, 3 or 10 μM; ergosterol 10 μM; LPS/IFN-γ or cytokine cocktail 24 h
Description: Mononuclear cells were prepared from human peripheral blood by density-gradient centrifugation using Ficoll-Paque (GE Healthcare, Japan). These cells were subjected to positive selection using anti-human CD14 MACS beads (Miltenyi Biotec), so that CD14-positive cells were obtained. CD14-positive cells were cultured in RPMI1640 media (containing 10% FBS (Invitrogen), 50 μmol/L 2-mercaptoethanol (Wako Pure Chemical Industries, Japan), 50 U/mL penicillin, and 50 μg/mL streptomycin (Gibco) (Sigma Aldrich)) supplemented with recombinant human GM-CSF (800 U/mL, Leukine, Berlex) and recombinant human IL-4 (100 ng/mL, Peprotech). During culture, medium exchange was performed once every 2 days. On day 7 of culture, 14-DHE was added at a concentration of 1 μM, 3 μM, or 10 μM. To a control, 10 μM ergosterol, which was a related substance, was added. Also, to a negative control, 1% ethanol, which was a solvent for 14-DHE, was added. The cells were recovered on day 8 of culture, counted, and then suspended at a density of 3×10^5 cells/mL in the above media. To cell suspensions, 1 μg/mL LPS and 100 ng/mL IFN-γ (both, Sigma Aldrich), or cytokine cocktail (1 μg/mL PGE2 (Sigma Aldrich), 10 ng/mL TNF-α, 2 μg/mL IL-6, and 10 ng/mL IL-1β (3 (all, BD Bioscience)) were added, followed by 24-hour culture. After culture, the cells were stained for CD86, HLA-DR, and CD80. Antibodies used were all produced by BD Bioscience. The gate of DCs was set by FSC and SSC, and the expression levels of these cell surface markers were analyzed.

[3] = system: DCs induced from C57BL/6 mouse bone marrow cells with Flt-3L; assay: Comparison with known regulatory DC-inducing agents, DC induction system using Flt-3L (Example 3); details: Flt-3L system, extract and γ-oryzanol 50 μg/mL, LPS 1 ng/mL
Description: (§1) The hexane fraction (No. 8) (in Table 1) prepared in Example 1 from wheat bran fermented with koji was used for the test. Since GM-CSF is used as a DC-inducing agent in the above-mentioned reports concerning rapamycin and IL-10/TGF-β, DCs were induced in each system of GM-CSF and Flt-3L and then each regulatory DC-inducing agent was evaluated.
In a manner similar to the experimental method in Example 2, bone marrow cells were prepared from C57BL/6 mouse thigh bone, the cells were suspended at 1×10^6 cells/mL in a medium, and then Flt-3L was added at 100 ng/mL. An extract from wheat bran fermented with koji, γ-oryzanol (Wako Pure Chemical Industries, Japan), or IL-10/TGF-β (produced by R&D systems and Peprotech, respectively) were added at 50 μg/mL for the former two or at 20 ng/mL for the latter two on day 0 after the initiation of culture. Rapamycin (Wako Pure Chemical Industries, Japan) was added at 10 ng/mL on day 3 after the initiation of culture. Culture was performed for 7 days and, at the time point of the last 24 hours of culture, LPS was added in a final concentration of 1 ng/mL.
Regarding an evaluation method, expression intensities of the cell-surface DC activation markers CD40, CD86 and MHCII and the suppression marker PD1L were evaluated by analysis using a flow cytometer. A gate was set on mDCs similarly to Example 1 and then analysis was conducted. Staining was performed using anti-CD11c-APC, anti-CD11b-APC-Cy7, anti-B220-PerCP, anti-CD40-FITC and anti-CD86-PE, or anti-CD11c-APC, anti-CD11b-APC-Cy7, anti-B220-PerCP, anti-MHCII-FITC, and anti-PD1L-PE (all available from Becton, Dickinson and Company) and then analysis was conducted.

[4] = system: DCs induced from C57BL/6 mouse bone marrow cells with GM-CSF; assay: Comparison with known regulatory DC-inducing agents, DC induction system using GM-CSF (Example 3); details: 50 μg/mL
Description: as §1
In a manner similar to the experimental method in […], bone marrow cells were prepared from C57BL/6 mouse thigh bone, the cells were suspended at a concentration of 2×10^5 cells/mL in a medium, and then 20 ng/ml GM-CSF (R&D systems) was added. The concentration and timing of the added test substance were similar to those in the above examples.
Regarding an evaluation method, expression intensities of the cell-surface DC activation markers CD40, CD86 and MHCII and the suppression marker PD1L were evaluated by analysis using a flow cytometer. In the case of the DC induction using GM-CSF, only mDC was generated. As in the case of Flt-3L, a gate was set on mDCs defined by CD11c^+CD11b^+B220^− and then analysis was conducted.

## CC(C)[C@@H](C)C=C[C@@H](C)[C@H]1CC[C@H]2C3=CC=C4C[C@@H](O)CC[C@]4(C)C3=CC[C@]12C [9(11)-DHE, 9(11)-dehydroergosterol, reference compound]
[1]; 1, 5 or 10 μM, LPS 5 ng/mL, culture supernatant
  expression of inflammatory cytokine IL-12p40 (ELISA): a slight decrease was observed
[1]; maximum concentration (10 μM), LPS 5 ng/mL 24 h
  expression levels of I-A/I-E, CD40, CD80 and CD86: slight decrease

## CC(C)[C@@H](C)/C=C/[C@@H](C)[C@H]1CC[C@H]2C3=CC=C4C[C@@H](O)CC[C@]4(C)[C@H]3CC[C@]12C [Ergosterol, ergosterol, reference compound]
[2]
  expression level of CD80 on human DCs: did not affect
  expression level of CD86 on human DCs: did not affect
  expression level of MHC class II molecule HLA-DR on human DCs: did not affect

## γ-oryzanol
[3]
  MHCII expression in response to LPS stimulation: no fluctuation was observed
[3]; rapamycin 10 ng/mL from day 3
  CD40 expression in response to LPS stimulation: no fluctuation was observed
  CD86 expression in response to LPS stimulation: no fluctuation was observed
[4]
  expression of DC activation markers in response to LPS stimulation: strong increases were observed
